Columns and labels:
Erysiphe cichoracearum = assay: Powdery mildew of cucumber, systemic root uptake (CMS); assay type: in vivo; conditions: 45 ml of 250 mg/l, 8 days after inoculation
Method: Compositions containing Compounds Nos. 1-81 were prepared by dissolving 0.24 grams of each of the compounds in 8 ml of acetone or other suitable inert solvent. Each of the resultant solutions was treated with 3 drops of TWEEN 20 (ethoxylated ethylene sorbitan monolaurate, a non-ionic surfactant)(I.C.I.), and water was added to form an emulsion. The degree of dilution with water was dictated by the desired concentration of the compound in the composition. The greater the quantity of water added, the lower the concentration of the compound in the composition, reported in milligrams per liter (mg/l) […] Upon reaching these ages, the plants were either treated with 45 ml of 250 mg/l concentration of the compositions of Example 9 or were left untreated. The untreated plants were used as controls. The 45 ml compositions saturated the soil of the treated pots without significant loss through drainage into the saucers below the pots. Twenty-four hours after the treatment with the compositions, both the barley and cucumber plants in all the pots, those treated and those untreated, were inoculated with powdery mildew fungus. This was accomplished by tapping leaves of previously infected barley and cucumber plants over the treated and untreated pots containing the barley and cucumber plants, respectively, to distribute spores of the fungus over the plants tested. […] Intermediate ratings were assigned depending on the degree of disease. […] The results of the powdery mildew disease control of barley are reported under the heading of "BMS". The results for cucumber mildew control are reported under the heading "CMS".

Erysiphe polygoni = assay: Powdery mildew on pinto bean, foliar application (ERY POL); assay type: in vivo; conditions: similar procedure as barley (1,000 mg/l); for pest or weed control at 1000 µg/mL: Erysiphe polygoni, read-out: Percent Reduction of Disease, ERY POL
Method: Compositions containing Compounds Nos. 1-81 were prepared by dissolving 0.24 grams of each of the compounds in 8 ml of acetone or other suitable inert solvent. Each of the resultant solutions was treated with 3 drops of TWEEN 20 (ethoxylated ethylene sorbitan monolaurate, a non-ionic surfactant)(I.C.I.), and water was added to form an emulsion. The degree of dilution with water was dictated by the desired concentration of the compound in the composition. The greater the quantity of water added, the lower the concentration of the compound in the composition, reported in milligrams per liter (mg/l) Ten plants of "Robust" variety barley were planted in each of a plurality of pots. Each pot was then either sprayed with one of the compositions of Example 9, at a composition concentration of 1,000 mg/l, or left unsprayed. For each pot sprayed, one pot was left unsprayed as a control. After the leaves of the sprayed pots were dried, the sprayed pots and the unsprayed control pots were placed in a greenhouse maintained at 21° C. All the pots were then inoculated with barley powdery mildew fungus, Erysiphe graminis. This inoculation was accomplished by distributing spores of the fungus over the leaves of the plants to be tested from plants which had previously been infected with the mildew disease. […] Again, percent control was computed by comparing the treatment scores with the scores of the untreated controls. The results are summarized in Table II under the heading "ERY GRA". Using a similar procedure as described above for the barley, pinto bean plants were prepared, treated and inoculated with the fungus Erysiphe polygoni. The results of this testing are summarized in Table II under the heading "ERY POL".

Pyricularia oryzae = assay: whole plant or invertebrate; assay type: in vivo; conditions: for pest or weed control at 1000 µg/mL: Pyricularia oryzae, in Hordeum vulgare, foliar, 216 h, read-out: Percent Reduction of Disease, PYR ORY, barley, foliar, 1,000 mg/l
Helminthosporium sativum = assay: Barley spot blotch, foliar treatment (HEL SAT); assay type: in vivo; conditions: foliar, 1,000 mg/l; for pest or weed control at 1000 µg/mL: Helminthosporium, foliar, 216 h, read-out: Percent Reduction of Disease, HEL SAT
Method: Compositions containing Compounds Nos. 1-81 were prepared by dissolving 0.24 grams of each of the compounds in 8 ml of acetone or other suitable inert solvent. Each of the resultant solutions was treated with 3 drops of TWEEN 20 (ethoxylated ethylene sorbitan monolaurate, a non-ionic surfactant)(I.C.I.), and water was added to form an emulsion. The degree of dilution with water was dictated by the desired concentration of the compound in the composition. The greater the quantity of water added, the lower the concentration of the compound in the composition, reported in milligrams per liter (mg/l) Ten plants of six day-old Barley (variety "Robust") were planted in each of a plurality of pots. Each pot was then either sprayed with one of the compositions of Example 9, at a concentration of 1,000 mg/l, or left unsprayed. The unsprayed plants were used as controls. An equal number of pots were sprayed and unsprayed. All plants, sprayed and unsprayed, were thereafter inoculated with spores of the blotch fungus Helminthosporium sativum. All inoculated plants were placed in a 99% humidity chamber for 24 hours and then placed in a greenhouse, maintained at a temperature of 21° C., for eight days. […] Percent control was computed and the results are summarized in Table II under the heading "HEL SAT".

[1] = test system: Cercosporidium personatum; assay: Fungal germination and growth, treated disc on agar, scored (CER PER); assay type: cell-based; parameters: key: 100: Complete inhibition of germination and growth.; 80: Nearly complete inhibition but some growth.; 50: Partial inhibition of growth or, early complete inhibition but later growth begins.; 20: Some inhibition of growth, but not significant.; 0: No inhibition of growth; conditions: disc dipped in 500 mg/l, 29° C., numerical score 0-100, spore suspension
Description: Filter paper discs, each 11 mm. in diameter, were dipped in each of the test solutions. The discs were allowed to air dry to drive off the acetone solvent. A number of untreated discs were used as controls. The treated and untreated discs were then placed on agar plates and one of the following fungus species: Septoria nodorum (SEP NOD), Botrytis cinerea (BOT CIN), Fusarium oxysporum (FUS OXY), Pythium ultimum ([…]), Rhizoctonia solani (RHI SOL), Colletotrichum gossypii (COL GOS), and Scierotinia minor (SCL MIN), was added to the center of each disc in the form of a culture plug with the fungus mat in contact with the paper of the test disc. Cercosporidium personatum (CER PER), was added to discs as a spore suspension (20,000 spores/ml) to the disc (two drops of spore suspension per disc), rather than a mycelial culture plug. The plates were then incubated at 29° C. in an oven. In the case of the Cercosporidium personatum (CER PER) fungi, scoring was done on a numerical basis as follows: 100=Complete inhibition of germination and growth. 80=Nearly complete inhibition but some growth. 50=Partial inhibition of growth or, early complete inhibition but later growth begins. 20=Some inhibition of growth, but not significant. 0=No inhibition of growth. The results of all the above tests appear in Table III below under the headings "SEP NOD," "BOT CIN," "FUS OXY," "[…]" "COL GOS" and "CER PER".

Pythium ultimum = assay: Fungal growth inhibition, treated disc on agar (PYT ULT); assay type: cell-based; conditions: disc dipped in 500 mg/l, 29° C.; for inhibition at 500 µg/mL: Globisporangium ultimum, read-out: Percent Growth Inhibition, PYT ULT
Method: (§1) The treated and untreated discs were then placed on agar plates and one of the following fungus species: Septoria nodorum (SEP NOD), Botrytis cinerea (BOT CIN), Fusarium oxysporum (FUS OXY), Pythium ultimum (PYT ULT), Rhizoctonia solani (RHI SOL), Colletotrichum gossypii (COL GOS), and Scierotinia minor (SCL MIN), was added to the center of each disc in the form of a culture plug with the fungus mat in contact with the paper of the test disc. Cercosporidium personatum (CER PER), was added to discs as a spore suspension (20,000 spores/ml) to the disc (two drops of spore suspension per disc), rather than a mycelial culture plug. The plates were then incubated at 29° C. in an oven.
(§2) With the exception of the discs containing Cercosporidium personatum, the discs were evaluated by first measuring the radius from the center of the fungus colony on the treated discs and on the untreated discs. Percent growth inhibition of each of the compounds tested was determined as a function of the difference between the radius of the fungus colony on the treated disc versus the radius of the fungus colony on the untreated disc.

Scierotinia minor = assay: Fungal growth inhibition, treated disc on agar (SCL MIN); assay type: cell-based; conditions: disc dipped in 500 mg/l, 29° C.; for inhibition at 500 µg/mL: read-out: Percent Growth Inhibition, SCL MIN
Colletotrichum gossypii = assay: Fungal growth inhibition, treated disc on agar (COL GOS); assay type: cell-based; conditions: disc dipped in 500 mg/l, 29° C.; for inhibition at 500 µg/mL: Colletotrichum gossypii, read-out: Percent Growth Inhibition, COL GOS
Method: as §1, §2

| SMILES | Percent Reduction of Disease, CMS (Erysiphe cichoracearum) [%] | pest or weed control at 1000 µg/mL (Erysiphe polygoni) [%] | pest or weed control at 1000 µg/mL (Pyricularia oryzae) [%] | pest or weed control at 1000 µg/mL (Helminthosporium sativum) [%] | CER PER inhibition score [1] | inhibition at 500 µg/mL (Pythium ultimum) [%] | inhibition at 500 µg/mL (Scierotinia minor) [%] | inhibition at 500 µg/mL (Colletotrichum gossypii) [%] | Percent Reduction of Disease, ERY POL (Erysiphe polygoni) [%] | Percent Reduction of Disease, PYR ORY (Pyricularia oryzae; barley, foliar, 1,000 mg/l) [%] | Percent Reduction of Disease, HEL SAT (Helminthosporium sativum) [%] | Percent Growth Inhibition, PYT ULT (Pythium ultimum) [%] | Percent Growth Inhibition, SCL MIN (Scierotinia minor) [%] | Percent Growth Inhibition, COL GOS (Colletotrichum gossypii) [%] |
| --- | --- | --- | --- | --- | --- | --- | --- | --- | --- | --- | --- | --- | --- | --- |
| CCCCC(C#N)(Cc1ccc(C(C)(C)C)cc1)c1cccnc1 (stereo not shown) [Compound 19] | 0 | 100 | 35 | 100 | 100 | 93 | 100 | 91 |  |  |  |  |  |  |
| CCCCC(C#N)(CCCc1ccc(OC)cc1)c1cccnc1 (stereo not shown) [Compound 76] | 0 | 100 | 0 | 100 | 100 | 0 | 100 | 100 |  |  |  |  |  |  |
| CCCC(C#N)(CCc1ccccc1)c1ccncc1 (stereo not shown) [Compound 25] | 17 | 17 | 0 | 0 | 0 | 0 | 86 | 72 |  |  |  |  |  |  |
| CCOc1ccc(CCC(C#N)(CC(C)C)c2cccnc2)cc1 (stereo not shown) [Compound 43] | 0 | 92 | 100 | 100 | 100 | 36 | 100 | 94 |  |  |  |  |  |  |
| CCCCC(C#N)(CCc1ccc(OCCC)cc1)c1cccnc1 (stereo not shown) [Compound 69] | 20 |  |  |  | 0 |  |  |  | 100 | 0 | 85 | 35 | 100 | 100 |
| N#CC(CCCF)(CCc1ccccc1F)c1cccnc1 (stereo not shown) [Compound 66] | 40 | 100 | 0 | 100 | 0 | 0 | 100 | 100 |  |  |  |  |  |  |
| C=C(Cl)CC(C#N)(CCc1ccc(F)cc1)c1cccnc1 (stereo not shown) [Compound 65] | 0 | 100 |  | 100 | 0 | 100 | 100 | 100 |  |  |  |  |  |  |
| Cc1ccc(CCC(C#N)(CCCF)c2cccnc2)cc1 (stereo not shown) [Compound 81] | 0 | 100 |  |  | 0 | 20 | 0 | 20 |  |  |  |  |  |  |

— patent US5945436A, “Pyridylmethyl nitriles, amides and thioamides useful as fungicides” (Uniroyal Chemical Company, Inc., priority 1997, dated 1999)
